Our source for the GI50 and TGI values is PubChem BioAssay (NCI).

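Five compound concentrations were applied to cells in 96-well plates for 48 hours; endpoints were derived by simple linear interpolation of the resulting dose-response curve. At the GI50, growth is halved. TGI marks complete inhibition of growth.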

Among the test systems are A498 renal; A549 NSCLC; HL-60(TB) leukemia; MCF7 breast; NCI-H23 lung; OVCAR-8 ovarian; SNB-19 CNS; SW-620 colon; UACC-62 melanoma; HCC-2998 colon.
Holding throughout (test): NCI-60 cell line screen, 48 h

Turning to `O=C1c2cccnc2-c2nc(-c3cccnc3)cc3c2c1nc1ccccc13`, the GI50 in the assay on A498 renal was 17.7 µM; in the assay on A549 NSCLC, 3.97 µM; in the assay with HL-60(TB) leukemia it was 2.11 µM; with MCF7 breast, 1.64 µM; in the assay with NCI-H23 lung it was 3.7 µM; with OVCAR-8 ovarian, 1.31 µM. Further, the GI50 in the assay with SNB-19 CNS is 5.59 µM; with SW-620 colon it was 2.28 µM; with UACC-62 melanoma, 13.3 µM. For the same molecule, the TGI in the assay with A498 renal was 46.8 µM; in the assay on A549 NSCLC it was 15.6 µM; in the assay on HL-60(TB) leukemia it was greater than 100 µM; in the assay with MCF7 breast, 3.32 µM; in the assay with NCI-H23 lung, 20.7 µM; with OVCAR-8 ovarian, 3.96 µM. Besides, the TGI was found to be 21 µM with SNB-19 CNS, 5.63 µM in the assay on SW-620 colon and 28.3 µM with UACC-62 melanoma.

For `CC(C)(C)NCC(O)COc1c(Br)c(Br)c(Br)c2c1OC(C)(C)C2` (stereo unspecified), the GI50 in the assay with A498 renal is 1.85 µM; in the assay with A549 NSCLC, 2.06 µM; with HL-60(TB) leukemia it was 1.53 µM; with MCF7 breast, 1.76 µM; in the assay on SW-620 colon it was 1.7 µM; in the assay with UACC-62 melanoma, 1.88 µM. The TGI with A498 renal came out at 3.33 µM; with A549 NSCLC it was 3.84 µM; in the assay with HL-60(TB) leukemia, 3.1 µM; in the assay with MCF7 breast, 3.24 µM; in the assay with SW-620 colon, 3.1 µM; in the assay with UACC-62 melanoma, 3.32 µM.

Turning to `Cc1cc(NCc2cc(Nc3ccnc4cc(Cl)ccc34)ccc2F)nc(N2CCOCC2)n1`, the GI50 in the assay with A498 renal is 1.46 µM; in the assay on A549 NSCLC, 3.89 µM; in the assay with HCC-2998 colon it was 2.27 µM; with HL-60(TB) leukemia, 1.77 µM; in the assay on MCF7 breast it was 2.12 µM; with NCI-H23 lung it was 2.43 µM. Besides, the GI50 in the assay on OVCAR-8 ovarian is 3.07 µM; with SNB-19 CNS it was 3.79 µM; in the assay with SW-620 colon, 1.81 µM. Moreover, the TGI turned out to be 6.89 µM in the assay with A498 renal; 21 µM in the assay on A549 NSCLC; 5.44 µM in the assay with HCC-2998 colon; 3.82 µM in the assay on HL-60(TB) leukemia; 6.15 µM in the assay on MCF7 breast; 7.28 µM with NCI-H23 lung. For the same molecule, the TGI came to 13.6 µM in the assay with OVCAR-8 ovarian, 54.4 µM in the assay with SNB-19 CNS and 4.7 µM with SW-620 colon.

Turning to `C=C(CN1CCc2c([nH]c3ccccc23)C1)c1ccc(C(=O)Nc2ccccc2N)cc1`, the GI50 with A549 NSCLC is 4.85 µM; in the assay with HCC-2998 colon it was 0.731 µM; in the assay on HL-60(TB) leukemia it was 0.67 µM; in the assay on MCF7 breast, 3.98 µM; in the assay with NCI-H23 lung, 3.73 µM; in the assay with OVCAR-8 ovarian, 1.9 µM. In addition, the GI50 was 10.7 µM in the assay on SNB-19 CNS, 3.89 µM in the assay with SW-620 colon and 1.59 µM with UACC-62 melanoma. Also, the TGI worked out at 32 µM in the assay with A549 NSCLC; 1.91 µM with HCC-2998 colon; 7.25 µM in the assay with HL-60(TB) leukemia; 22.9 µM in the assay on MCF7 breast; 19.9 µM in the assay on NCI-H23 lung; 14.7 µM in the assay with OVCAR-8 ovarian. The TGI worked out at 30.8 µM with SNB-19 CNS, 28.5 µM in the assay with SW-620 colon and 7.43 µM in the assay with UACC-62 melanoma.

As to `CC(=O)/C=C/c1ccc(Nc2c3ccccc3nc3occ(Cl)c23)cc1`, the GI50 was 4.04 µM with A549 NSCLC; 2.93 µM with HCC-2998 colon; 3.1 µM with HL-60(TB) leukemia; 1.07 µM in the assay with MCF7 breast; 3.1 µM in the assay with NCI-H23 lung; 2.03 µM in the assay with OVCAR-8 ovarian. For the same molecule, the values for the GI50 in the assay on SNB-19 CNS and in the assay on UACC-62 melanoma were 8.71 µM and 1.66 µM, respectively. Also, the TGI was determined as 32.5 µM in the assay with A549 NSCLC; 14.6 µM with HCC-2998 colon; 8.56 µM in the assay with HL-60(TB) leukemia; 14.3 µM in the assay on MCF7 breast; 13.2 µM with NCI-H23 lung; 4.64 µM in the assay on OVCAR-8 ovarian. The TGI was 30.2 µM in the assay with SNB-19 CNS and 7.03 µM in the assay with UACC-62 melanoma.

Turning to `CC1=Nc2ccccc2SC(c2c(Cl)cccc2Cl)C1` (stereo unspecified), the TGI in the assay with A498 renal turned out to be 3.74 µM; in the assay on A549 NSCLC it was 4.43 µM; with HCC-2998 colon, 3.18 µM; in the assay on HL-60(TB) leukemia it was 1.12 µM; with NCI-H23 lung it was 2.64 µM; with OVCAR-8 ovarian, 0.588 µM. For the same molecule, the results for the TGI in the assay with SNB-19 CNS, in the assay on SW-620 colon and in the assay on UACC-62 melanoma were 2.7 µM, 1.34 µM and 2.52 µM, respectively.

Take `COc1ccc(/C=C(\NC(=O)c2ccccc2)c2nc3ccccc3[nH]2)cc1OC`: the TGI in the assay with A498 renal, in the assay with A549 NSCLC, in the assay with HCC-2998 colon, in the assay with HL-60(TB) leukemia, in the assay with NCI-H23 lung and in the assay on OVCAR-8 ovarian was greater than 100 µM each time. For the same molecule, the TGI with SNB-19 CNS, in the assay on SW-620 colon and in the assay with UACC-62 melanoma was greater than 100 µM throughout.

As to `C=C1C(=O)O[C@H]2[C@H]1CC/C(COC(=O)N[C@H]1C[C@H](O[C@H]3C[C@](O)(C(=O)CO)Cc4c(O)c5c(c(O)c43)C(=O)c3c(OC)cccc3C5=O)O[C@@H](C)[C@H]1O)=C\CC[C@@]1(C)O[C@@H]21`, the GI50 in the assay with A498 renal was 6.85 µM; with A549 NSCLC, greater than 50 µM; in the assay with HCC-2998 colon, 11.8 µM; in the assay with MCF7 breast it was 1.86 µM; in the assay with NCI-H23 lung, 8.36 µM; with OVCAR-8 ovarian, 6.99 µM. Also, the GI50 with SNB-19 CNS was 13.2 µM; with SW-620 colon, 1.15 µM; in the assay with UACC-62 melanoma it was 1.69 µM. Besides, the TGI is 29.4 µM with A498 renal; greater than 50 µM with A549 NSCLC; 28.7 µM with HCC-2998 colon; 9.86 µM in the assay on MCF7 breast; 18.6 µM in the assay with NCI-H23 lung; 18 µM with OVCAR-8 ovarian. In addition, the figures for the TGI in the assay with SNB-19 CNS, in the assay on SW-620 colon and with UACC-62 melanoma were greater than 50 µM, 3 µM and 7.02 µM, respectively.

With `Cc1ccc(S(=O)(=O)c2nc(-c3ccccc3)oc2S(C)(=O)=O)cc1`, the GI50 is 15.4 µM with A498 renal; 14.2 µM in the assay on A549 NSCLC; 17.9 µM with HCC-2998 colon; 2 µM in the assay with HL-60(TB) leukemia; 6.73 µM with NCI-H23 lung; 1.96 µM in the assay with OVCAR-8 ovarian. In addition, the figures for the GI50 in the assay with SNB-19 CNS, with SW-620 colon and with UACC-62 melanoma were 11.2 µM, 2.05 µM and 1.89 µM, respectively. Besides, the TGI in the assay on A498 renal amounted to 28.7 µM; in the assay with A549 NSCLC, 27.3 µM; in the assay on HCC-2998 colon, 32.2 µM; in the assay on HL-60(TB) leukemia it was 6.43 µM; in the assay with NCI-H23 lung, 22.6 µM; in the assay on OVCAR-8 ovarian, 3.8 µM. The TGI came to 23.2 µM with SNB-19 CNS, 4.21 µM in the assay with SW-620 colon and 3.98 µM with UACC-62 melanoma.
